Test results: patent US20190169218A1, “AMPHIPATHIC COMPOUND HAVING NOVEL PENTA-SACCHARIDE HYDROPHILIC GROUP AND USE THEREOF” (Industry-University Cooperation Foundation Hanyang …, priority 2016, published 2019)

Legend:
[1] = biological target: T1, boron transporter (BOR1) BOR1-GFP fusion protein (Arabidopsis thaliana, UniProt Q8VYR7); test: solubilization (extraction) of BOR1-GFP fusion protein from membranes; details: amphipathic compound at 1.0 wt %
T1 construct: made in house; host or cells: Saccharomyces cerevisiae FGY217
Experimental: The ability of PSAs and PSEs to solubilize membrane proteins and to stabilize the structures of membrane proteins was evaluated using boron transporter (BOR1), a membrane protein. BOR1 was isolated from Arabidopsis thaliana, and was expressed in the form of a fusion protein having a GFP tag at the C-terminus in Saccharomyces cerevisiae FGY217 cells. This fusion protein has been proven to have boron transporting activity and is therefore involved in both structural and functional analysis of membrane proteins.
The ability of amphipathic compound PSAs and PSEs to solubilize the boron transporter (BOR1) membrane protein was evaluated.
Specifically, membranes containing BOR1-GFP fusion proteins were treated with an existing amphipathic compound (DDM), PSAs (PSA-C9, PSA-C10 and PSA-C11), or PSEs (PSE-C9, PSE-C11 and PSE-C13) at a concentration of 1.0 wt %. The solubilization efficiencies of PSA-C9, PSA-C10 and PSE-C9 were about 80% similar to the solubilization efficiency of DDM. In particular, the BOR1-GFP protein was quantitatively extracted (˜100%) using PSE-C11 having medium length chains, thus confirming that PSE-C11 is particularly useful for solubilization of BOR1-GFP.
(§1) Specifically, Arabidopsis thaliana-derived BOR1 was expressed in the form of a fusion protein having a GFP tag at the C-terminus in Saccharomyces cerevisiae FGY217 cells. The cells were grown in an URA-medium supplemented with 0.1% glucose. 2% galactose was added to the cell culture to induce protein expression and the cells were cultured at 20° C. for 18 hours (see Drew, D. et al., Nat. Protoc. 2008, 3, 784-798.). After culture, the cells were harvested and used to obtain the cell membranes (see Leung, J. et al., Protein Expr. Purif. 2010, 72, 139-146.). Membranes containing BOR1-GFP fusion proteins were diluted to a final total protein concentration of 2.8 mg/mL in PBS (pH7.4) supplemented with 1 wt % DDM, 1 wt % PSAs (PSA-C9, PSA-C10 or PSA-C11) or 1 wt % PSEs (PSE-C9, PSE-C11 or PSE-C13). The diluted samples were incubated at 4° C. for 1 hour with gentle shaking, and insoluble substances were removed by centrifugation at 14,000 g for 1 hour at 4° C. Supernatants containing the dissolved protein samples were incubated for 10 minutes at the specified temperature (35, 40, 45 or 50° C.), and strongly agglutinated proteins were removed by centrifugation at 14,000 g for 10 minutes at 4° C. 200 μL aliquots were taken from the supernatant and injected into a Superose 6 10/300 column equilibrated with 20 mM Tris-HCl (pH 7.5), 150 mM NaCl and 0.03% DDM. Each elution fraction was collected from a retention volume of 6.4 mL (i.e., after 6.4 mL of solution had passed), and added to a well of a clear bottom 96-well plate at a volume of 200 μL. GFP fluorescence generated in each fraction was measured using an excitation wavelength of 470 nm and an emission wavelength of 512 nm.

[2] = critical micelle concentration (CMC) by hydrophobic fluorescent staining with diphenylhexatriene (DPH); type: physicochemical
Description: Methods of measuring CMC are not particularly limited, and methods widely known in the art may be used. For example, a fluorescence staining method using diphenylhexatriene (DPH) may be used.
To characterize PSAs of Preparation Examples 1 to 3 synthesized according to the synthetic method of Example 1; PSEs of Preparation Examples 4 to 7 synthesized according to the synthetic method of Example 2; TPS-Es and TPS-ELs of Preparation Examples 8 to 14 synthesized according to the synthetic method of Example 3; and TPS-As of Preparation Examples 15 to 17 synthesized according to the synthetic method of Example 4, the critical micellar concentrations (CMCs) of PSAs, PSEs and TPSs and the hydrodynamic radii (Rh) of formed micelles were measured.
(§2) Specifically, critical micellar concentrations (CMCs) were measured using hydrophobic fluorescent staining and diphenylhexatriene (DPH), and the hydrodynamic radii (Rh) of micelles formed by each compound at a concentration of 1.0 wt % were measured using dynamic light scattering (DLS). The results were compared with results obtained from an existing amphipathic molecule (detergent), DDM, and are shown in Table 1.

[3] = hydrodynamic radius of micelles by dynamic light scattering (DLS); type: physicochemical; details: compound at 1.0 wt %
Experimental: Methods of measuring the radius of micelles are not particularly limited, and methods widely known in the art may be used. For example, dynamic light scattering (DLS) may be used.
as §2
When measuring, each of PSAs, PSEs and TPSs was used at a concentration of 1.0 wt %.

[4] = biological target: T1, boron transporter (BOR1) BOR1-GFP fusion protein; test: structural (thermal) stability of solubilized BOR1-GFP by fluorescence-based size exclusion chromatography (FSEC); details: heated at 40° C. for 10 minutes, 1 wt % compound
Experimental: The ability of PSAs or PSEs to stabilize the structure of boron transporter (BOR1) was measured in an aqueous solution. That is, the BOR1 protein solubilized in each amphipathic compound was denatured by heating, and then structural stability of BOR1 was measured using fluorescence-based size exclusion chromatography (FSEC).
as §1

[5] = biological target: T2, Salmonella typhimurium melibiose permease (MelB) (Salmonella typhimurium, UniProt P30878); test: MelB extraction efficiency and thermal stability by SDS-PAGE and western immunoblotting; details: 1.5 wt %, 0° C., 90 minutes (similar results at 45° C.)
T2 construct: made in house; host or cells: DW2 cells (melB and lacZY), Salmonella typhimurium DW2; plasmid pK95AHB/WT MelBst/CH10
Experimental: The ability of PSAs or PSEs to extract (solubilize) MelBst (Salmonella typhimurium melibiose permease) proteins and stabilize the structures thereof was measured. MelB proteins were extracted using PSAs, PSEs or DDM, and the amount of the extracted proteins and structural stability thereof were quantitatively analyzed by SDS-PAGE and western immunoblotting. The protein extraction efficiency and thermally stabilizing ability of the amphipathic compounds were simultaneously evaluated by extracting MelB proteins at four temperatures (0, 45, 55 or 65° C.) for 90 minutes using the amphipathic compounds at a concentration of 1.5 wt %.
Specifically, according to the method described in the journal article (P. S. Chae, et al., Chemistry. 2013, 19, 15645-15651.) published by the present inventors, proteins (MelBst) were produced using a plasmid pK95AHB/WT MelBst/CH10 containing a gene construct encoding wild-type MelB having 10×His tags at the C-terminus and Salmonella typhimurium DW2 cells (melB and lacZY). According to the method described in the journal article (A. S. Ethayathulla et al., Nat. Commun. 2014, 5, 3009), cells were cultured and the cell membranes were obtained from the cultured cells. Protein analysis was performed using a Micro BCA kit (Thermo Scientific, Rockford, Ill.). To measure solubilization/stability, membrane samples (the final concentration of membrane proteins was 10 mg/mL) containing MelBst were mixed with a solubilization buffer solution (20 mM sodium phosphate, pH 7.5, 200 mM NaCl, 10% glycerol and 20 mM melibiose) containing DDM, PSAs (PSA-C11) or PSEs (PSE-C9, PSE-C11, PSE-C13) at a concentration of 1.5% (w/v). Extracts were incubated at four different temperatures (0, 45, 55 and 65° C.) for 90 minutes. Fractions were removed by ultracentrifugation at 355,590 g for 45 minutes using a Beckman Optima™ MAX ultracentrifuge equipped with a No. 4 TLA-100 rotor. 20 μg of proteins was separated using a 15% SDS-PAGE gel. Next, immunoblotting was performed using Penta-His-HRP antibodies (Qiagen, Germantown, Md.). After performing SDS-PAGE and immunoblotting, the amount of solubilized MelB was quantitated and expressed as a percentage of the amount of MelB measured in the control group.

T2 sequence (P30878 whole entry): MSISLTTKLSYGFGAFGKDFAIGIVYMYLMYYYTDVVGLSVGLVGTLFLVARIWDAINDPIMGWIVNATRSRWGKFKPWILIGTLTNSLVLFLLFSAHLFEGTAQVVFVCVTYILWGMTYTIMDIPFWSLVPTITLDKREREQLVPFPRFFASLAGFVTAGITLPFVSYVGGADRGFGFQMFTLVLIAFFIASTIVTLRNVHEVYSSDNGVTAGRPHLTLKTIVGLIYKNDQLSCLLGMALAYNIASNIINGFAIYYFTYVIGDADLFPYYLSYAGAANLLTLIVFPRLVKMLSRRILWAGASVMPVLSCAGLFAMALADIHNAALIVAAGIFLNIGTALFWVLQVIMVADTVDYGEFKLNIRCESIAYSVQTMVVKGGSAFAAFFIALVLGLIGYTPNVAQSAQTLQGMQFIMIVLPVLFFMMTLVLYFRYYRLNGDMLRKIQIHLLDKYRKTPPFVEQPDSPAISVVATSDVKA

SMILES | solubilization efficiency of BOR1-GFP [1] | CMC [2] | CMC (wt %) [2] | Rh (nm), hydrodynamic radius of micelles [3] | structural stability of solubilized BOR1-GFP after heating (RFU, FSEC) [4] | MelB extraction efficiency [5]
CCCCCCCCCC(CCCCCCCCC)CO[C@@H]1OC(CO[C@@H]2OC(CO)[C@@H](O)C(O)C2O)[C@@H](O[C@@H]2OC(CO)[C@@H](O)C(O)C2O)C(O[C@@H]2OC(CO)[C@@H](O)C(O)C2O)C1O[C@@H]1OC(CO)[C@@H](O)C(O)C1O (stereo partly drawn) [PSA-C9] | about 80% | ~0.014 mM | ~0.0016 wt % | 2.94 ± 0.05 nm | – | –
CCCCCCCCCCC(CCCCCCCCCC)CO[C@@H]1OC(CO[C@@H]2OC(CO)[C@@H](O)C(O)C2O)[C@@H](O[C@@H]2OC(CO)[C@@H](O)C(O)C2O)C(O[C@@H]2OC(CO)[C@@H](O)C(O)C2O)C1O[C@@H]1OC(CO)[C@@H](O)C(O)C1O (stereo partly drawn) [PSA-C10] | about 80% | ~0.009 mM | ~0.0010 wt % | 3.10 ± 0.05 nm | remarkably improved as compared to DDM and PSA-C9 | –
CCCCCCCCCOCC(COCCCCCCCCC)O[C@@H]1OC(CO[C@@H]2OC(CO)[C@@H](O)C(O)C2O)[C@@H](O[C@@H]2OC(CO)[C@@H](O)C(O)C2O)C(O[C@@H]2OC(CO)[C@@H](O)C(O)C2O)C1O[C@@H]1OC(CO)[C@@H](O)C(O)C1O (stereo partly drawn) [PSE-C9] | about 80% | ~0.026 mM | ~0.0030 wt % | 3.19 ± 0.04 nm | greatly improved compared to DDM | extracted at an efficiency similar to the efficiency observed in the case of DDM
